# Assay results reported in patent US20090264306A1, “DNA METHYLATION BIOMARKERS IN LYMPHOID AND HEMATOPOIETIC MALIGNANCIES” (Curators of the University of Missouri, priority 2005, published 2009).
# Tested on: NHL lines RL, Daudi, DB, Raji, Granta 519 and Mec-1
# Assay: Reactivation of methylated genes by DAC and TSA in NHL cell lines, real time RT-PCR
# Type: cell-based, Human
# From the text: Cell Lines and Drug Treatments. Human NHL lines RL, Daudi, DB, Raji, Granta 519 and Mec-1 were maintained in RPMI 1640 media. The germinal center related cell line RL is derived from a patient with FL and the t(14,18) gene rearrangement (12), and Daudi and Raji cells are of germinal center derivation. The postgerminal center cell line DB is a DLBCL cell line that has undergone isotype switching (12). […] Granta 519 is an MCL cell line over-expressing cyclin D1 (13) and Mec-1 is a transformed B-CLL/SLL cell line (14). For gene reactivation experiments, cells were cultured in the presence of vehicle (PBS) or DAC (1.0 μM; medium changed every 24 h). After 4 days, cells were either harvested or further treated with TSA (1.0 μM) for 12 h and then harvested. Some cells were also treated with TSA alone for 12 h before harvest. Genomic DNA or total RNA was isolated using Qiagen™ kits (Qiagen, Valencia Calif.) and used for methylation and gene expression analysis, respectively.
# Real-time RT-PCR. Total RNA (2 μg) was pre-treated with DNase I to remove potential DNA contaminants and reverse-transcribed in the presence of SuperScript III™ reverse transcriptase (Invitrogen, Carlsbad, Calif.). The generated cDNA was used for PCR amplification with the system described above. The Taqman™ probe and primer sets for real time PCR were purchased from Applied Biosystems (Foster City, Calif.). Separate parallel reactions were run for GAPDH cDNA using a series of diluted cDNA samples as templates to generate standardization curves. The mRNA levels were derived from the standardization curves and expressed as relative changes after normalization to those of GAPDH.
# [1] = NHL cell lines, DAC 1.0 μM 4 days, TSA 1.0 μM 12 h, normalized to GAPDH, combination effect in most of the cell lines
structure (smiles),measurement,setting,value
"Nc1ncn([C@H]2C[C@H](O)[C@@H](CO)O2)c(=O)n1 [DAC, 5-aza-2-deoxycytidine]",CCND1 expression,"Granta 519 cell line, DAC alone",down regulated
same,CYP27B1 gene expression after treatment,[1],weakly to moderately up-regulated
same,RARβ2 gene expression after treatment,[1],weakly to moderately up-regulated
